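Dose response: 5 concentrations. Exposure: 48 h. Format: 96-well plates. Endpoint: linear interpolation; highest concentration if not reached. GI50 = concentration required for 50% inhibition of growth.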 Active and inactive are the calls of the source. Rule as the data show it: active = GI50 up to about 1.1 µM and inactive = higher.
Assays:
Test in all cases: inhibition of tumour cell growth, NCI panel, 48 h
[1] = system: Hs-578T
[2] = system: HOP-18
[3] = system: DMS-273
[4] = system: SNB-78
[5] = system: XF498
[6] = system: M19-MEL
[7] = system: RXF 631
[8] = system: LXFL 529
[9] = system: DMS-114

In the case of `COc1ccc2c(c1)[C@@H]1c3cc(OC)c(OC)cc3CCN1CCC2`, the GI50 [1] was > 100 µM (inactive).
With `COC1CC(O)C(OC(=O)c2ccccc2)C(C)O1` (centres undefined) the GI50 [2] was > 100 µM (inactive), the GI50 [3] was > 100 µM (inactive) and the GI50 [4] was > 100 µM (inactive). The GI50 [5] was > 100 µM (inactive), the GI50 [6] was > 100 µM (inactive) and the GI50 [7] was > 100 µM (inactive).
In the case of `Cc1nc(Cl)c(CBr)c(Cl)n1`, the GI50 [1] was 1.49 µM (inactive).
`COc1ccc(-c2cc(=O)c3cc(C)c(C)c(C(=O)O)c3o2)cc1` was tested, and the GI50 [3] was > 100 µM (inactive), the GI50 [4] was > 100 µM (inactive) and the GI50 [5] was > 100 µM (inactive). For the same compound, the GI50 [6] was > 100 µM (inactive), the GI50 [8] was > 100 µM (inactive) and the GI50 [7] was > 100 µM (inactive). For the same compound, the GI50 [9] was 15.3 µM (inactive).
With `O=c1cc(-c2ccccc2)oc2cc(Oc3nnnn3-c3ccccc3)ccc12` the GI50 [1] was 25.4 µM (inactive).
`CC1(c2cccc(C3CC4(CCC3=O)OCCCCO4)c2)OCCO1` (centres undefined) was tested, and the GI50 [2] was > 100 µM (inactive), the GI50 [3] was > 100 µM (inactive) and the GI50 [4] was > 100 µM (inactive). For the same compound, the GI50 [6] was > 100 µM (inactive), the GI50 [8] was > 100 µM (inactive) and the GI50 [9] was 7.96 µM (inactive).
With `COC(=O)/C=C\C(C#N)(C#N)/N=C/c1ccc(OC)cc1` the GI50 [1] was 10 µM (inactive).
`COc1cc(O)c2c(c1)OCC1(Cc3cc(OC)c(OC)cc31)C2=O` (centres undefined) was tested, and the GI50 [1] was 42.5 µM (inactive).
`CS(=O)(=O)Nc1ccc(NCc2c[nH]c3ccc4ncccc4c23)cc1` was tested, and the GI50 [1] was 22.3 µM (inactive).
With `Cc1ccc(S(=O)(=O)OCC/C(=C\[Si](C)(C)C)c2ccccc2)cc1` the GI50 [2] was > 100 µM (inactive), the GI50 [3] was > 100 µM (inactive) and the GI50 [5] was > 100 µM (inactive). The GI50 [6] was > 100 µM (inactive), the GI50 [8] was > 100 µM (inactive) and the GI50 [9] was > 100 µM (inactive).
In the case of `CC1(C)CO[P@@](=S)(c2ccccn2)O[C@@H]1c1ccccc1`, the GI50 [1] was > 100 µM (inactive).
For `CCc1c(OC(C)=O)c2c(NC3OCC(OC(C)=O)C(OC(C)=O)C3OC(C)=O)nc(SC)nc2oc1=O` (centres undefined), the GI50 [2] was > 100 µM (inactive), the GI50 [4] was > 100 µM (inactive) and the GI50 [5] was > 100 µM (inactive). The GI50 [6] was > 100 µM (inactive), the GI50 [8] was > 100 µM (inactive) and the GI50 [7] was > 100 µM (inactive).
With `O=C(CC(=O)N(C(=O)c1ccccc1)c1ccc(Cl)cc1)N/N=C\c1ccccc1O` the GI50 [1] was 26 µM (inactive).
With `C/C(N)=C/C(=O)c1[nH]c(C(=O)O)cc1C1CCN(Cc2ccccc2)C1=O` (centres undefined) the GI50 [1] was 27.9 µM (inactive).
With `CC1OC(OC2C(O[C@H]3CC[C@@H]4C(=CC[C@@H]5[C@@]4(C)C(=O)C[C@]4(C)[C@@H]([C@H](C)CC[C@@H](O)C(C)(C)O)CC[C@@]54C)C3(C)C)OC(CO)C(O)C2O)C(O)C(O)C1O` (some centres undefined) the GI50 [1] was > 100 µM (inactive).
`COc1ccc(OC)c2cc(C3(C)SCCCS3)ccc12` was tested, and the GI50 [2] was > 100 µM (inactive), the GI50 [3] was 79.6 µM (inactive) and the GI50 [4] was 45.9 µM (inactive). For the same compound, the GI50 [5] was 61.7 µM (inactive), the GI50 [6] was > 100 µM (inactive) and the GI50 [8] was > 100 µM (inactive). The GI50 [9] was 92.5 µM (inactive).
In the case of `COc1cc(CCCOC(=O)/C=C/c2ccc(O)c(O)c2)cc(O)c1O`, the GI50 [1] was 35.6 µM (inactive).
`CN(CCCCCl)P(=O)(OCc1ccc([N+](=O)[O-])o1)OCC1OC(n2ccc(N)nc2=O)C(O)C1O` (centres undefined) was tested, and the GI50 [1] was 1.26 µM (inactive).
In the case of `Fc1cccc(Cl)c1C1SCc2nc3cc4ccccc4cc3n21` (centres undefined), the GI50 [1] was 28.7 µM (inactive).
With `CC(=O)c1ccc(/N=N/c2ccc3nonc3c2N)cc1` the GI50 [1] was > 100 µM (inactive).
With `COc1cccc(C2c3cc4c(cc3OC(N3CCCCC3)C2C)OCO4)c1OC` (centres undefined) the GI50 [1] was 4.31 µM (inactive).
In the case of `COC(=O)C1=COC(C)C2C[n+]3ccc4c([nH]c5ccccc54)c3CC12` (centres undefined), the GI50 [1] was > 100 µM (inactive).
With `COc1ccc(CCN2CCN(CCc3ccc(OC)cc3)CC2)cc1` the GI50 [1] was > 100 µM (inactive).
`NC(=O)CC(N)C(N)=O` (centres undefined) was tested, and the GI50 [1] was > 100 µM (inactive).
`OCCN1CN(c2nc(N3CN(CCO)C3)nc(N3CN(CCO)C3)n2)C1` was tested, and the GI50 [1] was 35.2 µM (inactive).
In the case of `O=C(NC1CC1)c1c(O)[nH]c(=S)[nH]c1=O`, the GI50 [2] was > 100 µM (inactive), the GI50 [4] was > 100 µM (inactive) and the GI50 [6] was > 100 µM (inactive). For the same compound, the GI50 [8] was > 100 µM (inactive), the GI50 [7] was > 100 µM (inactive) and the GI50 [9] was > 100 µM (inactive).
For `COc1cc2c(cc1OC)C(CCN)=NCC2`, the GI50 [1] was 27.7 µM (inactive).
With `COc1cc(/C=C/C(=O)N[C@@H]2C(=O)N3[C@@H]2SC(C)(C)[C@@H]3C(=O)O)ccc1O` the GI50 [1] was > 100 µM (inactive).
In the case of `N#C[BH2-][n+]1ccc(C(=O)NNCc2ccc(F)cc2)cc1`, the GI50 [1] was > 100 µM (inactive).
With `C=C1C(=O)C23CC1CCC2C12CO[C@H](O)[C@H]1C(C)(C)[C@H](OC(C)=O)C[C@H]2OC3=O` (some centres undefined) the GI50 [1] was 34.4 µM (inactive).
For `COc1ncn(C2C=C(CO)C(O)C2O)c(=O)n1` (centres undefined), the GI50 [2] was > 100 µM (inactive), the GI50 [3] was > 100 µM (inactive) and the GI50 [4] was > 100 µM (inactive). The GI50 [8] was > 100 µM (inactive) and the GI50 [9] was > 100 µM (inactive).
For `CCN(CC)CCCNC(=O)c1ccc([N+](=O)[O-])cc1O`, the GI50 [3] was > 100 µM (inactive), the GI50 [4] was > 100 µM (inactive) and the GI50 [8] was > 100 µM (inactive). For the same compound, the GI50 [7] was > 100 µM (inactive) and the GI50 [9] was > 100 µM (inactive).
With `O=C(N/N=C/c1cccc(F)c1)c1ccncc1` the GI50 [2] was > 100 µM (inactive), the GI50 [3] was > 100 µM (inactive) and the GI50 [5] was > 100 µM (inactive). The GI50 [8] was > 100 µM (inactive) and the GI50 [9] was > 100 µM (inactive).
For `COc1cccc2cc(C(=O)O)c(=O)oc12`, the GI50 [1] was > 100 µM (inactive).
For `Nc1ccc([As](=O)(O)O)cc1` [ARSANILIC ACID], the GI50 [1] was > 100 µM (inactive).
